Assay results reported in PMC5768637, “In Vitro and in Silico Evidence of Phosphatase Diversity in the Biomineralizing Bacterium Ramlibacter tataouinensis” (Frontiers in Microbiology, 2018).

What was measured:
Rta PhoD = target: T1, Rta PhoD (Ramlibacter tataouinensis, UniProt F5XVP7); assay: p-nitrophenol release at […] nm, total soluble protein of expressing E. coli; type: biochemical; details: 50 mM Tris pH 8, 5 mM CaCl2, 5 mM MgCl2, 0.6 mM substrate
T1 construct: codon-optimised synthetic gene in pET-22b (MscI/BamHI), E. coli BL21(DE3); total soluble protein extract; precursor 530 aa, predicted Tat signal 31 aa; no precursor form seen on SDS-PAGE
T1 sequence (F5XVP7 32-530): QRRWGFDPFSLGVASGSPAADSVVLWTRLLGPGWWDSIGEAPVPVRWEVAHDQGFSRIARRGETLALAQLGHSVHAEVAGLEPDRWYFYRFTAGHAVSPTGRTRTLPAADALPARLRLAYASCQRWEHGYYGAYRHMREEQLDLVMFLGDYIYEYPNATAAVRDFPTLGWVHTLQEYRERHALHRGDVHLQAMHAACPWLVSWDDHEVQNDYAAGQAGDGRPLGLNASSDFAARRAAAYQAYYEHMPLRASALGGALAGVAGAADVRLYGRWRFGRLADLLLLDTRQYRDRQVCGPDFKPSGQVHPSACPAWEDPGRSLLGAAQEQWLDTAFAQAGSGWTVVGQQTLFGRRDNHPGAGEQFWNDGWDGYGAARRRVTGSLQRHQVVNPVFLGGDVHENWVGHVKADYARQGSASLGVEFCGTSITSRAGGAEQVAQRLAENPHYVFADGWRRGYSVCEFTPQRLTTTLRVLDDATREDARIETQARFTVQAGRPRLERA

Rta PhoX1 = target: T2, Rta PhoX1 (Ramlibacter tataouinensis, UniProt F5Y472); assay: as above; type: biochemical; details: 50 mM Tris pH 8, 5 mM CaCl2, 5 mM MgCl2, 0.6 mM substrate
T2 construct: gene Rta_14460; codon-optimised synthetic gene in pET-22b (MscI/BamHI), E. coli BL21(DE3); total soluble protein extract; precursor 643 aa, predicted Tat signal 51 aa; no precursor form seen on SDS-PAGE
T2 sequence (F5Y472 52-643): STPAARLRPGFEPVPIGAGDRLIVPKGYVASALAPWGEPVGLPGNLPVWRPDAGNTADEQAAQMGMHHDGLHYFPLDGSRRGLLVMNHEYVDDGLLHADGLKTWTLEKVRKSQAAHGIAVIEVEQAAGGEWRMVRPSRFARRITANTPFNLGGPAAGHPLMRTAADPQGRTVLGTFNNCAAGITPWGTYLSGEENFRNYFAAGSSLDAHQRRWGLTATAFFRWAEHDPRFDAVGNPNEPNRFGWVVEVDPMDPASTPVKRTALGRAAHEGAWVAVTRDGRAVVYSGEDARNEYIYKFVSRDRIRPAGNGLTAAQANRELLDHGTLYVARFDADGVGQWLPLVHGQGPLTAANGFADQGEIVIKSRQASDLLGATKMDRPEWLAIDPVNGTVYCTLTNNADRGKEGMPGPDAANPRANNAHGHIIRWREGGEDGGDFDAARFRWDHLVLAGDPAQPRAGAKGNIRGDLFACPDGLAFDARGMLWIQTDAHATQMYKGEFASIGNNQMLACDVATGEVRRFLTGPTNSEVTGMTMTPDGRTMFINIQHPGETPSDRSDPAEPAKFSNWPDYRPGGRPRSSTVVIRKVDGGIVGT

Structure (SMILES)	p-nitrophenol release at 405 nm, total soluble protein of expressing E. coli (Rta PhoD)	p-nitrophenol release at 405 nm, total soluble protein of expressing E. coli (Rta PhoX1)
O=[N+]([O-])c1ccc(OP(=O)(O)Oc2ccc([N+](=O)[O-])cc2)cc1 [bis-pNPP, bis p-nitrophenylphosphate]	the activity of PhoD was higher for bis-pNPP diester	PhoD and PhoX1 hydrolyzed all the pNPP derivatives (pNPP, bis-pNPP, and TpNPP)
O=[N+]([O-])c1ccc(OP(=O)(O)O)cc1 [pNPP, p-nitrophenylphosphate]	PhoD and PhoX1 hydrolyzed all the pNPP derivatives (pNPP, bis-pNPP, and TpNPP)	the activity of PhoX1 was higher for monoester
